From patent publication US7951956B2, “Benzoimidazole compound capable of inhibiting prostaglandin D synthetase” (Taiho Pharmaceuticals Co., Ltd., priority 2005, dated 2011)

Experiments:
[1] = target: human hematopoietic synthase (Homo sapiens, UniProt O60760); assay: Hematopoietic synthase inhibitory activity (Experiment 1); type: biochemical; details: [14C] prostaglandin H2 10 μM, preincubated at 25° C. for 5 minutes, 1 minute reaction; read-out: Concentration of Pharmaceutical Compound Required to Inhibit 50% of Hematopoietic Synthase
Procedure: Experiment 1 was carried out according to the method of Urade, Y. et al. (J. Biol. Chem. 262, 3820-3825, (1987)). More specifically, the reaction mixture (49 μL); 100 mM Tris-HCl (pH 8.0), 1 mM reduced glutathione, 0.1 mg/mL γ-globulin, and human hematopoietic synthase (quantum sufficient), and a test compound (final concentration: 0.01-100 μM) were preincubated at 25° C. for 5 minutes. In place of the test compound, a DMSO solution (final concentration: 1%) was used in the solvent control group (Control Group). Subsequently, 1 μL of [^14C] prostaglandin H2 (final concentration: 10 μM) was added to start the reaction. One minute after the start of the reaction, 250 μL of a reaction stopper solution (diethylether/methanol/1M citric acid (30/4/1) cooled to −20° C. was added to stop the reaction.
Thereafter, 50 μL of the upper layer portion (organic solvent phase) was applied to a TLC plate and developed at −20° C. for 45 minutes (developer: diethylether/methanol/acetic acid (capacity ratio=90/2/1)). After drying the plate, the plate was exposed to an imaging plate for 1 to 24 hours, and the radioactivity corresponding to prostaglandin D2 was analyzed using an image analyzer (product of FUJIFILM Corporation). The area (%) occupied by the prostaglandin D2 band per lane was calculated, and the concentration of the test compound required to inhibit 50% of the hematopoietic synthase (IC50 value) was calculated by comparison with the Control group in each experiment.

[2] = test system: PGD2 amount in bronchoalveolar lavage fluid; assay: Inhibitory activity for prostaglandin D2 production into bronchoalveolar lavage fluid in rats (Experiment 2); type: in vivo, Brawn Norway rats; details: 10 mg/kg orally two hours before antigen inhalation; lavage fluid one hour after ovalbumin inhalation; sensitized rats
Procedure: A physiological saline solution containing 1 mg of ovalbumin and 4 mg of alum was subcutaneously injected into the backs of 7-week-old male Brawn Norway rats in an amount of 1 mL/body, and 0.06 mg of killed pertussis bacteria were intraperitoneally injected into each rat to perform active sensitization. Fourteen days after sensitization, the rats inhaled 2% ovalbumin for 10 minutes. One hour after inhalation, bronchoalveolar lavage fluid was collected. The amount of PGD2 in the bronchoalveolar lavage fluid was determined using an EIA kit. Two hours before antigen inhalation, a test compound (10 mg/kg) was orally administered.

[3] = test system: antigen-induced nasal congestion; assay: Ameliorating activity for antigen-induced nasal congestion in guinea pig (Experiment 3); type: in vivo, Std:Hartley guinea pigs; details: for AUC3-7 hr (nRaw increase %): 3 to 7 hours after induction
Procedure: A physiological saline solution containing 1 mg/mL of ovalbumin was subcutaneously injected into the backs of 5-week-old male Std:Hartley guinea pigs in an amount of 1 mL/body for active sensitization (primary sensitization). One week and two weeks after primary sensitization, 20 μL each of a physiological saline solution containing 10 mg/mL of ovalbumin was instilled into the nasal cavities using a micropipette (sensitization by nasal administration). Three weeks after primary sensitization, 10 μL each of a physiological saline solution containing 20 mg/mL of ovalbumin was instilled into the nasal cavities using a micropipette to induce a rhinitis reaction.
Before, and 10 minutes and 2, 3, 4, 5, 6 and 7 hours after nasal instillation of ovalbumin, the nasal airway resistance per 100 breaths was determined using a comprehensive respiratory function analysis system (“Pulmos-I”, a product of M.I.P.S. Co., Ltd.), and the average at each measurement time was calculated and expressed as nRaw. The increase % of nRaw was calculated according to the following formula. Increase(%)of nRaw at each measurement time=(nRaw at each measurement time−nRaw before induction)÷nRaw before induction×100
Nasal congestion was evaluated by measuring the area under the curve of nRaw increase % during the period of 3 to 7 hours after induction (AUC3-7 hr). “I3-7 hr” refers to the increase of nRaw during the period of 3 to 7 hours after induction. AUC3-7hr=½(I3hr+2×I4hr+2×I5hr+2×I6hr+I7hr)
To confirm the effects on nasal congestion by inhibition of PGD2 production, Compound 15 was selected as a representative compound and orally administered once a day for 15 consecutive days from the day of nasal sensitization performed 1 week after primary sensitization to the day of induction performed 3 weeks after primary sensitization. On the nasal sensitization days (1 week and 2 weeks after primary sensitization) and the induction day, compound 15 was orally administered 1 hour before intranasal instillation of ovalbumin.

human hematopoietic synthase, sequence (O60760 whole entry): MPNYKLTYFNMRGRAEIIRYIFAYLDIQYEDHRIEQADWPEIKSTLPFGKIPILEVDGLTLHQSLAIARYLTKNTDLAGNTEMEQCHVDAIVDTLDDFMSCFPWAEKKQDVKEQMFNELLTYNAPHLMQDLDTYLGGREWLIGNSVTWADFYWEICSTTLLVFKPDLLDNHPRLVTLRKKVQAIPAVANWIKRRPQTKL

With Cc1oc(C(=O)N2CCCC2)c(C)c1-c1nc2cc(C(=O)c3ccccc3)ccc2[nH]1 [Compound 3, (4-(5-Benzoylbenzimidazol-2-yl)-3,5-dimethyl-2-furanylcarbonyl)pyrrolidine] the IC50 [1] was 178 nM and the “Inhibition (%) of the PGD2 Amount in Bronchoalveolar Lavage Fluid” value (“Inhibition (%) of the PGD2 Amount” for short) [2] was 36%.
For Cc1[nH]c(C#N)c(C)c1-c1nc2cc(C(=O)c3ccccc3)ccc2[nH]1 [Compound 13, 2-(2-Cyano-3,5-dimethyl-pyrrol-4-yl)-5-benzoylbenzimidazole], the IC50 [1] was 540 nM, the “Inhibition (%) of the PGD2 Amount” value [2] was 48% and the melting point was 159 to 163 °C.
With CON(C)C(=O)c1[nH]c(C)c(-c2nc3cc(C(=O)c4ccccc4)ccc3[nH]2)c1C [Compound 15, (N-Methoxy-N-methyl)-4-(5-benzoylbenzimidazol-2-yl)-3,5-dimethylpyrrole-2-carboxamide] the IC50 [1] was 256 nM, the “Inhibition (%) of the PGD2 Amount” value [2] was over 72% and the melting point was 127 to 132 °C. For the same compound, the “Inhibition (%) of nasal congestion (AUC3-7 hr)” value (“Inhibition (%) … (AUC3-7 hr)” below) ([3]; 3 mg/kg orally) was 60.8%, the “AUC3-7 hr (nRaw increase %)” value ([3]; 3 mg/kg orally) was 273.9 ± 69.1 % · hr and the “Inhibition (%) … (AUC3-7 hr)” value ([3]; 10 mg/kg orally) was 76.5%. For the same compound, the “AUC3-7 hr (nRaw increase %)” value ([3]; 10 mg/kg orally) was 153.5 ± 27.1 % · hr, the “Inhibition (%) … (AUC3-7 hr)” value ([3]; 30 mg/kg orally) was 92.8% and the “AUC3-7 hr (nRaw increase %)” value ([3]; 30 mg/kg orally) was 65.7 ± 28.9 % · hr.
Cc1[nH]c(C(=O)NCCC(=O)O)c(C)c1-c1nc2cc(C(=O)c3ccccc3)ccc2[nH]1 [Compound 21, N-(2-Carboxyethyl)-4-(5-benzoylbenzimidazol-2-yl)-3,5-dimethylpyrrole-2-carboxamide] gave an IC50 [1] of 304 nM and a melting point of 256 to 258 °C.
In the case of Cc1[nH]c(C(=O)N2CCOCC2)c(C)c1-c1nc2cc(C(=O)c3ccccc3)ccc2[nH]1 [Compound 40, ((4-(5-benzoylbenzimidazol-2-yl)-3,5-dimethylpyrrol-2-yl)-carbonyl)morpholine], the IC50 [1] is reported as 592 nM and the “Inhibition (%) of the PGD2 Amount” value [2] is reported as 65%.
With Cc1[nH]c(C(=O)N2CCC=N2)c(C)c1-c1nc2cc(C(=O)c3ccccc3)ccc2[nH]1 [Compound 42, ((4-(5-Benzoylbenzimidazol-2-yl)-3,5-dimethylpyrrol-2-yl)-carbonyl)pyrazoline] the IC50 [1] was 63 nM and the “Inhibition (%) of the PGD2 Amount” value [2] was 88%.
For Cc1[nH]c(C(=O)N2CCC(C(=O)O)CC2)c(C)c1-c1nc2cc(C(=O)c3ccccc3)ccc2[nH]1 [Compound 45, ((4-(5-Benzoylbenzimidazol-2-yl)-3,5-dimethylpyrrol-2-yl)-carbonyl)piperidine-4-carboxylic acid], the IC50 [1] was 643 nM and the melting point was 267 to 271 °C.
For Cc1[nH]c(C(=O)N2CCC(C(=O)NCCN(C)C)CC2)c(C)c1-c1nc2cc(C(=O)c3ccccc3)ccc2[nH]1 [Compound 46, N-Dimethylaminoethyl-1-((4-(5-benzoylbenzimidazol-2-yl)-3,5-dimethylpyrrol-2-yl)-carbonyl)piperidine-4-carboxamide], the IC50 [1] was 758 nM and the melting point was 258 to 260 °C.
With Cc1cc(C)c(-c2nc3cc(C(=O)c4ccccc4)ccc3[nH]2)[nH]1 [Compound 52, 5-Benzoyl-2-(3,5-dimethylpyrrol-2-yl)-benzimidazole] the IC50 [1] was 4800 nM and the melting point was 225 to 229 °C.
Work on CCOC(=O)c1c(C)[nH]c(-c2nc3cc(C(=O)c4ccccc4)ccc3[nH]2)c1C [Compound 53, 5-(5-Benzoylbenzimidazole-2-yl)-2,4-dimethylpyrrole-3-carboxylic acid ethyl ester] yielded an IC50 [1] of 3080 nM and a melting point of 185 to 187 °C.
O=C(c1ccccc1)c1ccc2[nH]c(-c3ccc(C(=O)O)o3)nc2c1 [Compound 57, 5-(5-Benzoylbenzimidazol-2-yl)-furan-2-carboxylic acid] showed an IC50 [1] of 4130 nM and a melting point of 170 °C.
Compound Cc1[nH]c(C(=O)NCO)c(C)c1-c1nc2cc(C(=O)c3ccccc3)ccc2[nH]1 [Compound 67, (N-Hydroxymethyl)-4-(5-benzoylbenzimidazol-2-yl)-3,5-dimethylpyrrole-2-carboxamide] has an IC50 [1] of 109 nM and a melting point of 196 to 210 °C.
For CCOC(=O)c1[nH]c(C)c(-c2nc3cc(Oc4ccccc4)ccc3[nH]2)c1C [Compound 68, 4-(5-Phenoxybenzimidazole-2-yl)-3,5-dimethylpyrrole-2-carboxylic acid ethyl ester], the IC50 [1] was 210 nM and the melting point was 239 to 242 °C.
With Cc1[nH]c(C(=O)O)c(C)c1-c1nc2cc(Oc3ccccc3)ccc2[nH]1 [Compound 69, 4-(5-Phenoxybenzimidazole-2-yl)-3,5-dimethylpyrrole-2-carboxylic acid] the IC50 [1] was 491 nM and the melting point was 167 to 172 °C (dec.).
Cc1[nH]c(C(=O)N2CCCC2)c(C)c1-c1nc2cc(Oc3ccccc3)ccc2[nH]1 [Compound 70, ((4-(5-Phenoxybenzimidazole-2-yl)-3,5-dimethylpyrrol-2-yl)-2-carbonyl)pyrrolidine] showed an IC50 [1] of 614 nM and a melting point of 251 to 254 °C.
With O=C(Nc1cccc2c(=O)cc(-c3nnn[nH]3)oc12)c1ccc(OCCCCc2ccccc2)cc1 [Pranlukast, reference compound] the “Inhibition (%) … (AUC3-7 hr)” value ([3]; 30 mg/kg orally) was 81.5% and the “AUC3-7 hr (nRaw increase %)” value ([3]; 30 mg/kg orally) was 126.3 ± 41.7^$$ % · hr.
For O=C(O)CCn1c2c(c3ccccc31)C[C@H](NS(=O)(=O)c1ccc(F)cc1)CC2 [Ramatroban, reference compound], the “Inhibition (%) … (AUC3-7 hr)” value ([3]; 30 mg/kg orally) was 70.9% and the “AUC3-7 hr (nRaw increase %)” value ([3]; 30 mg/kg orally) was 183.4 ± 29.3^$$ % · hr.
